Data reported in patent US9598387B2 (Southern Research Institute, priority 2012, dated 2017).

Legend:
[1] = biological target: human D2 receptors (Homo sapiens (Human), UniProt P14416); experiment: D2 Mitogenesis Functional Assay (3H-thymidine uptake, CHOp-D2 cells); format: cell-based; conditions: inhibition of quinpirole (30 nM final) stimulation of mitogenesis; read-out: D2 Antagonist IC50
[2] = biological target: T1, D3R (Homo sapiens (Human), UniProt P35462); experiment: β-Arrestin Recruitment Assay, U2OS DRD3; format: cell-based; conditions: antagonist vs EC80 8 nM PD128907, U2OS DRD3 cells; read-out: D3 IC50
T1 sequence (P35462 whole entry): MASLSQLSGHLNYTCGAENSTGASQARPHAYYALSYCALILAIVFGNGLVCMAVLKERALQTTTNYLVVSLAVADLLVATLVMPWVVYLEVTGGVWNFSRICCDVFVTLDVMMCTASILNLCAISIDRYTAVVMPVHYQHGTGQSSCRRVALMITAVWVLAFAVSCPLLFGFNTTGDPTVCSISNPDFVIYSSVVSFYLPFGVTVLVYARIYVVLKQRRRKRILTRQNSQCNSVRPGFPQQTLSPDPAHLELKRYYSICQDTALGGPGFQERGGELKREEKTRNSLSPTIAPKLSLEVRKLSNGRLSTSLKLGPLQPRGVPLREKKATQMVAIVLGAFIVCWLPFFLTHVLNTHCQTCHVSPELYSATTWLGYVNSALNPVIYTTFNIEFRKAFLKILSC
Experimental: Antagonist potency of the compounds against agonist induced recruitment of β-arrestin by D3R and D2LR was measured using DiscoverRx PathHunter eXpress kits. […] After incubation at 37° C. for 90 min, the DiscoveRx detection reagent was added, the plates were incubated at room temperature for 60 min and the luminescence was measured on a Synergy 4 plate reader (BioTek). The data were plotted and the agonist EC80 values were calculated using GraphPad Prism software. For antagonist activity, the cells were plated as described above and treated with multiple concentrations (starting from 500 nM, half log dilution, 10 dose points) of the test compounds in Plating Reagent with 0.1% DMSO.

[3] = tested on: Rats; experiment: Cue-induced reinstatement of cocaine-seeking; format: in vivo, rat; conditions: 3 doses ip 20 minutes before reinstatement session
Experimental: Rats were trained to self-administer cocaine (1.0 mg/kg/injection) under a FR1 schedule of reinforcement in daily 3-h sessions and, after stable responding was established (as described above) the schedule was changed to FR3. After stable responding under the FR3 schedule was established, extinction training began. Stable responding was defined as follows: 12 consecutive sessions in which total rewards per session was greater than 20 and in which total rewards per session for the last three sessions was within ±10% of the mean of the three sessions. […] After extinction criteria were met each rat was tested in one 1-h reinstatement session; each rat received an ip injection of vehicle or one of 3 doses of the test compound and 20 minutes later was placed in the operant chamber. At the start of the reinstatement session the cocaine-associated cues (light on for 20 s and pump on for 4.5 s) were presented twice, once at 25 sec and again at 2 min into the session. Presses on the active lever illuminated the light and activated the pump.

[4] = biological target: T1, D3R; experiment: D3 Mitogenesis Functional Assay (3H-thymidine uptake, CHOp-D3 cells); format: cell-based
In short: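 CHO cells expressing human D3, serum-starved 24 h, then given compound (agonist mode) or antagonist plus 30 nM quinpirole final for 16 h at 37 °C. A 2 h [3H]thymidine pulse was used for uptake.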

Sequence of human D2 receptors (P14416 whole entry): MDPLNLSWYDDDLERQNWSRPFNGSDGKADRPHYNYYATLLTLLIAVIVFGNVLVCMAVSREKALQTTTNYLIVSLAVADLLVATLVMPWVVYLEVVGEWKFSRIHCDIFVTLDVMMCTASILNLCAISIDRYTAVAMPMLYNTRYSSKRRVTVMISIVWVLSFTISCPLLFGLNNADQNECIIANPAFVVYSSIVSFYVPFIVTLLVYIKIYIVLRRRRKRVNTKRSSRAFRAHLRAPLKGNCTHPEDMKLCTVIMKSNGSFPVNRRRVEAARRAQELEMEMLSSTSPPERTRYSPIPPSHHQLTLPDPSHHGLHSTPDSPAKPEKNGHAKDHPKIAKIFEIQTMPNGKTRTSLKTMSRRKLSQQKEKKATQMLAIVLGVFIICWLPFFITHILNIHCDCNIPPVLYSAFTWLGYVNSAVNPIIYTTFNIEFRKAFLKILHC

IC50 [1]: 2300 ± 1100 nM | IC50 [2]: 0.56 ± 0.12 nM | Emax at 10 µM ([4]; at 10 μM, % maximum stimulation vs quinpirole (100%), read-out: D3 Agonist Emax): 0% | IC50 ([4]; inhibition of quinpirole (30 nM final) stimulation of mitogenesis, read-out: D3 Antagonist IC50): 157 ± 34 nM
Structure (SMILES): CC(C)(C)c1nc(N2CCN(CCCCNC(=O)c3cn4ccccc4n3)CC2)cc(C(F)(F)F)n1 [Compound 113, N-(4-(4-(2-(tert-Butyl)-6-(trifluoromethyl)pyrimidin-4-yl)piperazin-1-yl)butyl)imidazo[1,2-a]pyridine-2-carboxamide]
cue-induced reinstatement (active lever presses, 1-h test) [3]: strongly reduced in a dose-related fashion
